Assay [1] has as its target RAF proto-oncogene serine/threonine-protein kinase (Homo sapiens, UniProt P04049). Nature of the assay: Inhibition of full length recombinant c-RAF (unknown origin) using MEK1 as substrate after 1 hr by luminescence assay.
Assay [2] concerns HUVEC. Nature of the assay: cells. The following applies: Homo sapiens, 72 h.
Description: (§1) Antiproliferative activity against HUVEC after 72 hrs by MTT assay
A further assay concerns Huh-7. Nature of the assay: Cytotoxicity against human HuH7 cells by MTT assay. Background: Tetrazolium assays rely on reduction of a dye to a coloured formazan, in cell work by metabolically active cells.
The next assay concerns HepG2. Nature of the assay: Cytotoxicity against human HepG2 cells by MTT assay.
For assay [3], the target named is T1, Bifunctional epoxide hydrolase 2 (Homo sapiens, UniProt P34913).
T1 sequence (P34913 whole entry): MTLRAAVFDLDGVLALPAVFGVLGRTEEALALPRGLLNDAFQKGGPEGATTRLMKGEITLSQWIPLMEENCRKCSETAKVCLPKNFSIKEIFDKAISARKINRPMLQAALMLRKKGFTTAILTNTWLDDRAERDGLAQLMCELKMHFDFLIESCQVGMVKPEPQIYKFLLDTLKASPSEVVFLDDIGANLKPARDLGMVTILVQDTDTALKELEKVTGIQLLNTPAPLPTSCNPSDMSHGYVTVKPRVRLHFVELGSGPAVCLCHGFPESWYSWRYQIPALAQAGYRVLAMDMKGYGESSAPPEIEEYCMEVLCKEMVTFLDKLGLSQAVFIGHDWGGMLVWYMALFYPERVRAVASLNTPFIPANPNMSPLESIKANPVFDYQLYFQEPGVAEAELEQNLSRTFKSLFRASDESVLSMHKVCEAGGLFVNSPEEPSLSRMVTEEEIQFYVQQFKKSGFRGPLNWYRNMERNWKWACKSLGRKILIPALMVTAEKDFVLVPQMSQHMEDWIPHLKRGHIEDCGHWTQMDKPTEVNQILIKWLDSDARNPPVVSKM
Nature of the assay: Inhibition of human recombinant soluble epoxide hydrolase assessed as cyano(6-methoxy-naphthalen-2-yl)methyl trans-[(3-phenyloxyran-2-yl)methyl] carbonate conversion to 6-methoxy-2-naphthaldehyde preincubated for 5 mins prior to substrate addition by fluorescence assay.

Assay [4] addresses Vascular endothelial growth factor receptor 2 (Homo sapiens) (UniProt P35968). Nature of the assay: Inhibition of VEGFR-2 (unknown origin) at 10 uM after 1 hr by luminescence assay.
Assay [5] addresses Platelet-derived growth factor receptor beta (Homo sapiens) (UniProt P09619). Nature of the assay: Inhibition of recombinant PDGFRbeta (unknown origin) at 10 uM.
In assay [6] the target is Platelet-derived growth factor receptor alpha (Homo sapiens) (UniProt P16234). The experiment in a line: Inhibition of recombinant PDGFRalpha (unknown origin) at 10 uM.
For assay [7], the target named is Receptor-type tyrosine-protein kinase FLT3 (Homo sapiens) (UniProt P36888). The experiment in a line: Inhibition of recombinant FLT-3 (unknown origin) at 10 uM.
For assay [8], the target named is Glycogen synthase kinase-3 alpha (Homo sapiens) (UniProt P49840). The experiment in a line: Inhibition of recombinant GSK3alpha (unknown origin) at 10 uM.
In assay [9] the target is Hepatocyte growth factor receptor (Homo sapiens) (UniProt P08581). The following applies: at 10 µM.
Description: Inhibition of recombinant MET (unknown origin) at 10 uM
For assay [10], the target named is Vascular endothelial growth factor receptor 1 (Homo sapiens) (UniProt P17948). Nature of the assay: Inhibition of recombinant FLT-1 (unknown origin) at 10 uM.
The test system of assay [11] is HUVEC.
Description: as §1
Assay [12] has as its target Fibroblast growth factor receptor 2 (Homo sapiens) (UniProt P21802). The experiment in a line: Inhibition of recombinant FGFR-2 (unknown origin) at 10 uM.
Assay [13] concerns the target Vascular endothelial growth factor receptor 2 (Homo sapiens) (UniProt P35968). Nature of the assay: Inhibition of recombinant KDR (unknown origin) at 10 uM.
Assay [14] deals with T2, 3-phosphoinositide-dependent protein kinase 1 (Homo sapiens) (UniProt O15530).
T2 sequence (whole entry): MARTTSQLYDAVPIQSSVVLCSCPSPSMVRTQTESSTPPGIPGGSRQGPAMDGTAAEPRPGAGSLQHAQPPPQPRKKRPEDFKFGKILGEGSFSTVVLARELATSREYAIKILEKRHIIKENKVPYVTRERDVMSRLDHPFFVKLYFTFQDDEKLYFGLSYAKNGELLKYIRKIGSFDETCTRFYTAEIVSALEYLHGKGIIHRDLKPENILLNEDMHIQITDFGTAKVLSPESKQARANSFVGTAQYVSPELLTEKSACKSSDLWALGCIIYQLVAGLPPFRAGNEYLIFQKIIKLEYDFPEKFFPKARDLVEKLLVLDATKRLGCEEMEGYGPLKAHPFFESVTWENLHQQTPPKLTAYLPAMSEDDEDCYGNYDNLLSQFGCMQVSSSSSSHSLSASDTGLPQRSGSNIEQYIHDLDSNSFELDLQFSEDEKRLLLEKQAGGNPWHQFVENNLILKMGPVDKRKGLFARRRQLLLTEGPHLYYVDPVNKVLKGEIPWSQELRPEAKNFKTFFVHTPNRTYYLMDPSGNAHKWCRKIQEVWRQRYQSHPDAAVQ
Nature of the assay: Inhibition of recombinant PDPK-1 (unknown origin) at 10 uM.

For assay [15], the target named is Tyrosine-protein kinase ABL2 (Homo sapiens) (UniProt P42684). The experiment in a line: Inhibition of recombinant ABL-2 (unknown origin) at 10 uM.
Assay [16] addresses Serine/threonine-protein kinase B-raf (Homo sapiens, UniProt P15056, V600E). The experiment in a line: Inhibition of B-RAF V600E mutant (unknown origin) using MEK1 as substrate.

Calls of active or inactive are those of the source. No cut-off for these calls is given here. Bounds are passed on as bounds.

In general, IC50 refers to the midpoint of a concentration-inhibition curve. Broadly, the GI50 is the concentration at which growth is held to half of that of the control. Low readings indicate greater sensitivity of the cells, high ones lower sensitivity of the cells.

Chain of Vascular endothelial growth factor receptor 2 (Homo sapiens) (P35968 whole entry): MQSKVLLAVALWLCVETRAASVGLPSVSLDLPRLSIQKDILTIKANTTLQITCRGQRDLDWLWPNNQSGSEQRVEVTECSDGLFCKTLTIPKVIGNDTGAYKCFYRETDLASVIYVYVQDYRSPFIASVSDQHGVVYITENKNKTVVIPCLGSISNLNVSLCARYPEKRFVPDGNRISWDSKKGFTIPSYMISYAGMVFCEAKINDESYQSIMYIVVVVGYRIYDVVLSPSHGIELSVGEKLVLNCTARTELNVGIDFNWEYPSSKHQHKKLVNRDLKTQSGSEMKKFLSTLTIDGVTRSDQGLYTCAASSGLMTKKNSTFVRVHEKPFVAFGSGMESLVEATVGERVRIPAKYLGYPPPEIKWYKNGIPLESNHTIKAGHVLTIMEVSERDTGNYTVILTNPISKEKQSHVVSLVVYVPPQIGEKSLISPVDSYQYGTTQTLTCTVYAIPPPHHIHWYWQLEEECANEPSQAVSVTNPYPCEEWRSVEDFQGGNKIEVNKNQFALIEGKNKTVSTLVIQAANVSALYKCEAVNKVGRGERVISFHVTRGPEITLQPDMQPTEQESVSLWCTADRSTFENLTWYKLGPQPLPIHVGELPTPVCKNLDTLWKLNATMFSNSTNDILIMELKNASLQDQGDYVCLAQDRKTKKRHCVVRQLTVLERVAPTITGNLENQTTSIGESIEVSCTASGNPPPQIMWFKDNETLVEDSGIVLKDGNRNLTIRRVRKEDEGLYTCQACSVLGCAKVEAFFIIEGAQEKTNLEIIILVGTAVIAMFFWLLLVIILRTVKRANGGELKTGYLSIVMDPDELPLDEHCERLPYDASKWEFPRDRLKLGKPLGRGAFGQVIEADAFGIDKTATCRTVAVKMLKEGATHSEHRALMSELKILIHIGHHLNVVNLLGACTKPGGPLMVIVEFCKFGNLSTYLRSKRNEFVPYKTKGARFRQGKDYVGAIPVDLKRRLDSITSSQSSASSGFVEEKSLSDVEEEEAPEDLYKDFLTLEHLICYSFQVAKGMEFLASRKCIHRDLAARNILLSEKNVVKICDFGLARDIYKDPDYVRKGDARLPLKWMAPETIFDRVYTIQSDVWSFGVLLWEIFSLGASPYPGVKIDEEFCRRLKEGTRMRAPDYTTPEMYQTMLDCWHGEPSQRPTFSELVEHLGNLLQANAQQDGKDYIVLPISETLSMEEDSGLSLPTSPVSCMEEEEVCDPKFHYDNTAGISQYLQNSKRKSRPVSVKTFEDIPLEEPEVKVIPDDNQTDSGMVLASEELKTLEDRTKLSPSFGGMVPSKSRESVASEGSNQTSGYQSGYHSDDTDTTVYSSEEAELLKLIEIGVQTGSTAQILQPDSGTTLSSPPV
Chain of RAF proto-oncogene serine/threonine-protein kinase (P04049 whole entry): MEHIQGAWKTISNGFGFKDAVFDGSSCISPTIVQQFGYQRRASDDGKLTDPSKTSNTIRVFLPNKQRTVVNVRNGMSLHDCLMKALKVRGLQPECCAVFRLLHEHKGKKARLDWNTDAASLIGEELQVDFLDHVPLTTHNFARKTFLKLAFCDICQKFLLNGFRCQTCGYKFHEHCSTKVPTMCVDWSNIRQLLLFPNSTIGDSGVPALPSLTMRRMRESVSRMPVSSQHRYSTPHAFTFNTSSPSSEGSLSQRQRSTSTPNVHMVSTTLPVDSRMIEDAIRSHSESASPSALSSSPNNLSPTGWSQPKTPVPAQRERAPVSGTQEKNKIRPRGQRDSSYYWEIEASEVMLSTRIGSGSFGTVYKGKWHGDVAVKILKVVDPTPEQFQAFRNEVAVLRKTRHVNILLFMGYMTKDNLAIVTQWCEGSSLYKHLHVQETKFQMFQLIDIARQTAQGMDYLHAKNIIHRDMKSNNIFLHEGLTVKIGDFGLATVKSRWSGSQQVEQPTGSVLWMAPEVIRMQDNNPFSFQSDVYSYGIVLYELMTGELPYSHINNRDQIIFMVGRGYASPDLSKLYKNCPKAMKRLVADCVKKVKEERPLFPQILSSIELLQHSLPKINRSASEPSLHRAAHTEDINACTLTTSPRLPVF
Chain of Platelet-derived growth factor receptor beta (Homo sapiens) (P09619 whole entry): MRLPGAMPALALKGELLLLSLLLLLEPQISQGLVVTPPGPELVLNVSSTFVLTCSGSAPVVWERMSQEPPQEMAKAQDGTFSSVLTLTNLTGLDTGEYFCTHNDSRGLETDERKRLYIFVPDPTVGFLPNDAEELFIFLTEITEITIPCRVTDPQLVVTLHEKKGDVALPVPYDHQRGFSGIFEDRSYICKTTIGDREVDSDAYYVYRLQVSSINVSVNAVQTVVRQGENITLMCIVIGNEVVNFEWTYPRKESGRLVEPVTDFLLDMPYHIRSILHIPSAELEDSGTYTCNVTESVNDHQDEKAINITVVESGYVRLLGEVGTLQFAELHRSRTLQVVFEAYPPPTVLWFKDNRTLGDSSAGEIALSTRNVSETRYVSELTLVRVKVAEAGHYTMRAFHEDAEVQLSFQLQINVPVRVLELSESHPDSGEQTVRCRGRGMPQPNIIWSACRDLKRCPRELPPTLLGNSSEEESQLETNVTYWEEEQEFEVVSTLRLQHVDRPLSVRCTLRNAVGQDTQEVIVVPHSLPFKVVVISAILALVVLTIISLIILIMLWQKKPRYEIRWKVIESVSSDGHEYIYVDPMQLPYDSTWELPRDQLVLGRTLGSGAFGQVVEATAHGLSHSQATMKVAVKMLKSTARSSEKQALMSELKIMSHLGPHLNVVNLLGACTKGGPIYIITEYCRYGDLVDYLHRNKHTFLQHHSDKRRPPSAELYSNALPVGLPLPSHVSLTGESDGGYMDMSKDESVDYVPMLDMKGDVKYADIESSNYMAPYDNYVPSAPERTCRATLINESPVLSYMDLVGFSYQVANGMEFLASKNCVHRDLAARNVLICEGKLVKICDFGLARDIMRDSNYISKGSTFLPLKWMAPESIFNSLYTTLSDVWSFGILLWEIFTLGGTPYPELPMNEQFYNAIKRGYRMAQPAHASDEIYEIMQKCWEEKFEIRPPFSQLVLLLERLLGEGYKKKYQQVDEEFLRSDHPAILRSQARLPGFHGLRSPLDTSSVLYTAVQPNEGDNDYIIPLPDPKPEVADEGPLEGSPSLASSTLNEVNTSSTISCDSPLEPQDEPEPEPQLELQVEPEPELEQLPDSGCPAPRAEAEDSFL
Chain of Fibroblast growth factor receptor 2 (Homo sapiens) (P21802 22-821 limits assumed): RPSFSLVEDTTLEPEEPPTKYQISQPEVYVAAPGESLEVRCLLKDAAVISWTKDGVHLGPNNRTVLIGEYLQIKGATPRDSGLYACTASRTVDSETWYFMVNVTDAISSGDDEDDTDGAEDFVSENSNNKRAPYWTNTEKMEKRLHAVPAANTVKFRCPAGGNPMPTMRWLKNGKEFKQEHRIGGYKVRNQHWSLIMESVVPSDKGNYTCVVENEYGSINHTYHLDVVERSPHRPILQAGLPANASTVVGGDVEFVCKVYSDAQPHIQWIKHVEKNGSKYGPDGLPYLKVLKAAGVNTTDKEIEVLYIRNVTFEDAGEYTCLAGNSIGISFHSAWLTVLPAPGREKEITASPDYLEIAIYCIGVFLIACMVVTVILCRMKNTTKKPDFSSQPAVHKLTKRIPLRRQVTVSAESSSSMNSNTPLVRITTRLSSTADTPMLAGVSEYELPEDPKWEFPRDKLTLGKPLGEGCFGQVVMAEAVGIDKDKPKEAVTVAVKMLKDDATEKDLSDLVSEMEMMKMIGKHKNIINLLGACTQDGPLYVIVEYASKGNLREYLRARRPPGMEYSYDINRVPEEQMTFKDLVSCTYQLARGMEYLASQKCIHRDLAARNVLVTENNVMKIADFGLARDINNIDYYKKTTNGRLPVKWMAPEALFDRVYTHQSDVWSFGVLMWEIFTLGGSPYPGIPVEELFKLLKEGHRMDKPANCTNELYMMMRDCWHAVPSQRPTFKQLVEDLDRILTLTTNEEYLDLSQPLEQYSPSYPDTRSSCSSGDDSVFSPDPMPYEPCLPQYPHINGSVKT
Chain of Serine/threonine-protein kinase B-raf (P15056 2-766 V600E limits assumed): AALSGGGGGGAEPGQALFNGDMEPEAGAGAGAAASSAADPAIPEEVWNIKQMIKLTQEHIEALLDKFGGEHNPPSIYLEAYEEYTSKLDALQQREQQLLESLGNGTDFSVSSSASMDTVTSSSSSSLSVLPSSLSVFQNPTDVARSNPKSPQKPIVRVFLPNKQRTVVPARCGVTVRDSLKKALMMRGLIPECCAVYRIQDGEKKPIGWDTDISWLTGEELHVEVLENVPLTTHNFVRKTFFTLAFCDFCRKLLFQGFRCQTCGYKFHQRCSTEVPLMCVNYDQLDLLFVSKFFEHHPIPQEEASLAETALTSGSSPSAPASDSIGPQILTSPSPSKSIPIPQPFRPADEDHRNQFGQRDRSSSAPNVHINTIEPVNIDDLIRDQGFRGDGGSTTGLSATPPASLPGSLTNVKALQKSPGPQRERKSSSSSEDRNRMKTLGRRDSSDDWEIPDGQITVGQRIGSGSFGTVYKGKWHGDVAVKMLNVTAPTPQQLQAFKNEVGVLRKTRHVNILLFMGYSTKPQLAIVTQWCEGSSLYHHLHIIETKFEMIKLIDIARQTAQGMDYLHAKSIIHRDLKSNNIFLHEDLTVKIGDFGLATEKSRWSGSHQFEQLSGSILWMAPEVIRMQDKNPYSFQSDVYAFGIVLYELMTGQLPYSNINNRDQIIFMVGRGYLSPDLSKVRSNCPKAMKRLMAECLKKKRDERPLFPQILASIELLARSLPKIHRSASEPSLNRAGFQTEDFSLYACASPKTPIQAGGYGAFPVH

Take `CNC(=O)c1cc(O[C@H]2CC[C@H](NC(=O)Nc3ccc(OC(F)(F)F)cc3)CC2)ccn1`: in assay [1], the IC50 is > 10 µM. Further, the GI50 in the assay on HUVEC [2] is > 25 µM; with Huh-7 (Homo sapiens, Huh-7), 7 µM; with HepG2 (Homo sapiens, HepG2) it was 7 µM.
In the case of `CS(=O)(=O)N1CCC(NC(=O)Nc2ccc(OC(F)(F)F)cc2)CC1`, in [1], the IC50 is > 10 µM. Further, the GI50 in the assay with HUVEC [2] was > 25 µM; in the assay with Huh-7 (Homo sapiens, Huh-7) it was > 25 µM; in the assay with HepG2 (Homo sapiens, HepG2), > 25 µM.
On to `CNC(=O)c1ccc(O[C@H]2CC[C@H](NC(=O)NC34CC5CC(CC(C5)C3)C4)CC2)cc1`, for which, in assay [1], the IC50 was > 10 µM. In addition, the 50% growth inhibitory concentration (GI50) in the assay on HUVEC [2] is > 25 µM; in the assay on Huh-7 (Homo sapiens, Huh-7) it was 5.5 µM; in the assay with HepG2 (Homo sapiens, HepG2), 7 µM.
In the case of `CNC(=O)c1cccc(O[C@H]2CC[C@H](NC(=O)Nc3ccc(Cl)c(C(F)(F)F)c3)CC2)c1`, the IC50 in assay [1] was 0.293 µM; in [3] it was 1 nM. The concentration for 50% growth inhibition (GI50) in the assay on HUVEC [2] worked out at 11 µM; in the assay on Huh-7 (Homo sapiens, Huh-7) it was 7.5 µM; in the assay with HepG2 (Homo sapiens, HepG2) it was 6.5 µM.
For `O=C(Nc1ccc(Cl)c(C(F)(F)F)c1)N[C@H]1CC[C@H](Oc2ccc(C(=O)O)cc2)CC1` the same measures were 4.3 µM, 0.5 nM, 25 µM, > 25 µM and > 25 µM.
Take `CNC(=O)c1ccc(O[C@H]2CC[C@H](NC(=O)Nc3ccc(OC(F)(F)F)cc3)CC2)cc1`: the IC50 in assay [1] was > 10 µM. The 50% growth inhibitory concentration (GI50) with HUVEC [2] was > 25 µM; with Huh-7 (Homo sapiens, Huh-7) it was 5.5 µM; with HepG2 (Homo sapiens, HepG2), 7 µM.
For the compound `CNC(=O)c1ccc(O[C@H]2CC[C@H](NC(=O)Nc3ccc(Cl)c(C(F)(F)F)c3)CC2)cn1`, in assay [4], the inhibition result was “Active”. Also, the concentration for 50% growth inhibition (GI50) was 10.5 µM with HUVEC [2]; 8 µM in the assay with Huh-7 (Homo sapiens, Huh-7); 7 µM in the assay with HepG2 (Homo sapiens, HepG2).
For `O=C(Nc1ccc(Cl)c(C(F)(F)F)c1)N[C@H]1CC[C@H](Oc2cccc(C(=O)O)c2)CC1`, the IC50 is > 10 µM in [1] and 8.6 nM in assay [3]. The GI50 with HUVEC [2] was 10.5 µM; in the assay with Huh-7 (Homo sapiens, Huh-7), > 25 µM; in the assay on HepG2 (Homo sapiens, HepG2), > 25 µM.
With `CNC(=O)c1cc(Oc2ccc(NC(=O)Nc3ccc(Cl)c(C(F)(F)F)c3)c(F)c2)ccn1` [REGORAFENIB], the IC50 in assay [3] amounted to 0.5 nM.
As for `CNC(=O)c1cc(O[C@H]2CC[C@H](NC(=O)Nc3ccc(Cl)c(C(F)(F)F)c3)CC2)ccn1`, in assay [4], the inhibition result is “Active”. Further, the 50% growth inhibitory concentration (GI50) in the assay with HUVEC [2] turned out to be 11 µM; in the assay on Huh-7 (Homo sapiens, Huh-7), 8 µM; in the assay with HepG2 (Homo sapiens, HepG2), 7 µM.
Take `CNC(=O)c1cc(O[C@H]2CC[C@@H](NC(=O)Nc3ccc(Cl)c(C(F)(F)F)c3)CC2)ccn1`: the GI50 in the assay on HUVEC [2] worked out at 10 µM; with Huh-7 (Homo sapiens, Huh-7), 8.5 µM; in the assay with HepG2 (Homo sapiens, HepG2) it was 7.5 µM.
`CN(C)C(=O)c1cc(O[C@H]2CC[C@H](NC(=O)Nc3ccc(Cl)c(C(F)(F)F)c3)CC2)ccn1`: the concentration for half-maximal inhibition (IC50) was > 10 µM in assay [1] and 0.5 nM in [3]. The 50% growth inhibitory concentration (GI50) was 8 µM in the assay with Huh-7 (Homo sapiens, Huh-7) and 10 µM in the assay on HepG2 (Homo sapiens, HepG2).
Turning to `CNC(=O)c1ccc(O[C@H]2CC[C@H](NC(=O)Nc3ccc(Cl)c(C(F)(F)F)c3)CC2)cc1`, the concentration for 50% growth inhibition (GI50) in the assay with HUVEC [2] is > 25 µM; in the assay on Huh-7 (Homo sapiens, Huh-7), 16 µM; in the assay on HepG2 (Homo sapiens, HepG2) it was > 25 µM.
`O=C(Nc1ccc(OC(F)(F)F)cc1)N[C@H]1CC[C@H](Oc2ccc(C(=O)O)cc2)CC1`: the inhibition entry in assay [5], in assay [6], in [7], in assay [8], in [9] and in [10] was “inactive” each time. The inhibition entry in assay [12], in assay [13], in assay [14] and in assay [15] was “inactive” in each case. For the same compound, the GI50 in the assay on Huh-7 was 20 µM; in the assay with HUVEC [11], > 25 µM; in the assay with HepG2 it was 15 µM.
With `O=C(NC12CC3CC(CC(C3)C1)C2)N[C@H]1CC[C@H](Oc2ccc(C(=O)O)cc2)CC1`, the inhibition entry in assay [5], in assay [6], in assay [7], in [8], in [10] and in [12] was “inactive” throughout. Moreover, the inhibition result in [13], in [14] and in assay [15] was “inactive” in each case.
Consider `CNC(=O)c1cc(Oc2ccc(NC(=O)NC34CC5CC(CC(C5)C3)C4)cc2)ccn1`, for which the inhibition entry in assay [4] was “Active”. Besides, the values for the 50% inhibitory concentration (IC50) in [16] and in [1] were > 5 µM and 1 µM, respectively. In addition, the GI50 amounted to 25 µM in the assay on HUVEC [2]; 7 µM in the assay with Huh-7 (Homo sapiens, Huh-7); 10 µM in the assay on HepG2 (Homo sapiens, HepG2).
As to `CCN(CC)CCNC(=O)c1c(C)[nH]c(/C=C2\C(=O)Nc3ccc(F)cc32)c1C` [SUNITINIB], the 50% inhibitory concentration (IC50) in [3] is > 10000 nM.
Take `CNC(=O)c1cc(Oc2ccc(NC(=O)Nc3ccc(OC(F)(F)F)cc3)cc2)ccn1`: the inhibition entry in assay [4] was “Active”. In addition, in assay [16], the IC50 is > 5 µM. The GI50 was > 25 µM in the assay on HUVEC [2]; 7 µM in the assay on Huh-7 (Homo sapiens, Huh-7); 7 µM in the assay on HepG2 (Homo sapiens, HepG2).

Values taken from ChEMBL document CHEMBL2396585, “Synthesis and biological evaluation of sorafenib- and regorafenib-like sEH inhibitors” (Bioorg Med Chem Lett, 2013).
